ChEMBL document CHEMBL1127170, “Cyclooxygenase and 5-lipoxygenase inhibitory activity of 2,6 di-t-butylphenols linked by a sulfur atom to 1,3,4-thiadiazoles and 1,3,4-oxadiazoles” (Bioorg Med Chem Lett, 1993)

Assays:
[1] = target: T1, Cyclooxygenase (Rattus norvegicus, UniProt P35355+Q63921); assay: The compound was tested for the inhibition of Prostaglandin G/H synthase in intact basophilic rat leukemia cells
T1 sequence (P35355 whole entry): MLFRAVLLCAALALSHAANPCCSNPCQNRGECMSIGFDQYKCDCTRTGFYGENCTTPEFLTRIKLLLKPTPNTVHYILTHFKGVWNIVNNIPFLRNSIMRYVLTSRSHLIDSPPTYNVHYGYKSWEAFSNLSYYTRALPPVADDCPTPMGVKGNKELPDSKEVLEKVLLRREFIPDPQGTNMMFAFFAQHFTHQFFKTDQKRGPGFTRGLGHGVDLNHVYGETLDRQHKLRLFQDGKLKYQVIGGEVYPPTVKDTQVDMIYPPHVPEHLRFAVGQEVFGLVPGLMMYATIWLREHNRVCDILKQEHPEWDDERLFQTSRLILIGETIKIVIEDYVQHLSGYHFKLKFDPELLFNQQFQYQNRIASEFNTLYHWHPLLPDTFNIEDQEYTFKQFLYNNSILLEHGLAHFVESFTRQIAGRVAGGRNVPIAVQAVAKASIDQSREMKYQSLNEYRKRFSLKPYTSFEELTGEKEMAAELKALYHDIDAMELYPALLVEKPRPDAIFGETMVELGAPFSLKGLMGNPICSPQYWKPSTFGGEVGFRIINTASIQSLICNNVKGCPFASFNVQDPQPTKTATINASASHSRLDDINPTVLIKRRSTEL
T1 sequence (Q63921 whole entry): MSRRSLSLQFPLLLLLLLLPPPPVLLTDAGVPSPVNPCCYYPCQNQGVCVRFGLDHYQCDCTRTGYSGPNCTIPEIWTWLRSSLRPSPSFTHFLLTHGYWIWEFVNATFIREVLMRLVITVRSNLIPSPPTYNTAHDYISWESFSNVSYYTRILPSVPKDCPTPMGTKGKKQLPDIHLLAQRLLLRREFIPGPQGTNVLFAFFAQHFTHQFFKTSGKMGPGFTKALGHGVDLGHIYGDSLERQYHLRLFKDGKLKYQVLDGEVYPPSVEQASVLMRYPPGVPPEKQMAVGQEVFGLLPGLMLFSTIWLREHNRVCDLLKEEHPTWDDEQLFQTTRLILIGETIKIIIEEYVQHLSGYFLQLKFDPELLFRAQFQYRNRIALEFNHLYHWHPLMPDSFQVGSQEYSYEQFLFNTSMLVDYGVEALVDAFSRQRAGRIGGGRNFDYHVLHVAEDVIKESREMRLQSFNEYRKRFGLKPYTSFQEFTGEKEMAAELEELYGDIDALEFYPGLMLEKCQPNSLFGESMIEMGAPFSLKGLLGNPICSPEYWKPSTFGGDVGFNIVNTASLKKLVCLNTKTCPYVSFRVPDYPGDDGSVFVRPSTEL

[2] = target: T2, Polyunsaturated fatty acid 5-lipoxygenase (Rattus norvegicus, UniProt P12527); assay: The compound was tested for the inhibition of 5-lipoxygenase in intact basophilic rat leukemia cells; type: cell-based, RBL-1
T2 sequence (P12527 whole entry): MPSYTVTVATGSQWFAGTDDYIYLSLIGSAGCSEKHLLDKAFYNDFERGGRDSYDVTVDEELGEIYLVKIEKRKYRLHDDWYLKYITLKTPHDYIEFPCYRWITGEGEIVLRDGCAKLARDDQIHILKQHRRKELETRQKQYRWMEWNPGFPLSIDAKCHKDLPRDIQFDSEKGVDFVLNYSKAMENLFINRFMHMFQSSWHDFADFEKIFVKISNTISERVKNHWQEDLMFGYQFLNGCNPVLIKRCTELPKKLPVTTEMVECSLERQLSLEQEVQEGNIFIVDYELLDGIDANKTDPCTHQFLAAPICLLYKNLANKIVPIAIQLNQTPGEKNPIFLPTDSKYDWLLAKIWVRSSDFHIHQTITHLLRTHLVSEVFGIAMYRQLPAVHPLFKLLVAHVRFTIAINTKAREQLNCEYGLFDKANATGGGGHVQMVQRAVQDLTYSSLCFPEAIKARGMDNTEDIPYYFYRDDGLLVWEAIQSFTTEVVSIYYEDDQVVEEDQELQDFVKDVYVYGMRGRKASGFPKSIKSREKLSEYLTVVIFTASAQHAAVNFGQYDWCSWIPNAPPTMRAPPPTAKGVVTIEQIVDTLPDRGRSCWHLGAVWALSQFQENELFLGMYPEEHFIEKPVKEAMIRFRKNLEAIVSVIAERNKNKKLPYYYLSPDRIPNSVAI

[3] = target: T3, Polyunsaturated fatty acid 5-lipoxygenase (Rattus norvegicus) (UniProt P12527); assay: The compound was tested for the inhibition of 5-lipoxygenase in intact basophilic rat leukemia cells at 10 uM; type: cell-based; details: RBL-1
T3 sequence (whole entry): T2 sequence (P12527 whole entry)

[4] = target: T4, Cyclooxygenase (Rattus norvegicus) (UniProt P35355+Q63921); assay: The compound was tested for the inhibition of Prostaglandin G/H synthase in intact basophilic rat leukemia cells at 10 uM
[5] = target: T4, Cyclooxygenase (Rattus norvegicus); assay: The compound was tested for the inhibition of Prostaglandin G/H synthase in intact basophilic rat leukemia cells at 16 uM
[6] = target: T3, Polyunsaturated fatty acid 5-lipoxygenase (Rattus norvegicus); assay: The compound was tested for the inhibition of 5-lipoxygenase in intact basophilic rat leukemia cells at 1.0 uM; type: cell-based; details: RBL-1

Structure (SMILES) | IC50 [1] [µM] | IC50 [2] [nM] | inhibition [5] [%] | other results
CC(C)(C)c1cc(Sc2nnc(S)o2)cc(C(C)(C)C)c1O | 1.5 |  |  | 
CC(C)(C)c1cc(Sc2nnc(N)s2)cc(C(C)(C)C)c1O |  |  |  | inhibition [3]: < 40%; inhibition [4]: < 40%
CC(C)(C)c1cc(Sc2nnc(O)o2)cc(C(C)(C)C)c1O |  | 1100 | < 40 | 

Continued, in another order:

IC50 [1] [µM] | IC50 [2] [nM] | inhibition [5] [%] | Structure (SMILES) | other results
6 | 3100 |  | CC(C)(C)c1cc(Sc2nnc(NC#N)s2)cc(C(C)(C)C)c1O | 
3.6 |  |  | CC(C)(C)c1cc(Sc2nnc(S)s2)cc(C(C)(C)C)c1O | 
 |  | < 40 | CC(C)(C)c1cc(Sc2nnc(O)s2)cc(C(C)(C)C)c1O | inhibition [6]: 75%
